According to publication PMC8538004, “Identification of a Novel Neuropeptide S Receptor Antagonist Scaffold Based on the SHA-68 Core” (Pharmaceuticals, 2021):

What was measured:
NPSR = system: NPSR; design: method as in PMID 24964000, PMID 20615693, PMID 18337476, PMID 24171469, PMID 20510609; details: Figure 1, known NPSR antagonists; cited from earlier work
human NPSR-107I = molecular target: T1, human NPSR-107I (Homo sapiens, UniProt Q6W5P4, N107I); test: Ca+2 mobilization assay (apparent Ke against NPS); assay type: cell-based; details: for Kb: Calcium Mobilization, CHO-Gα16-hNPSR-107I cells, shift of NPS EC50; for Loss of antagonist activity compared to SHA: compared with SHA-66 (Ke = 10 nM); for NPSR antagonist activity in words: calcium mobilization, SAR discussion
T1 construct: expressed in transfected cells
T1 sequence (Q6W5P4 1-371 N107I): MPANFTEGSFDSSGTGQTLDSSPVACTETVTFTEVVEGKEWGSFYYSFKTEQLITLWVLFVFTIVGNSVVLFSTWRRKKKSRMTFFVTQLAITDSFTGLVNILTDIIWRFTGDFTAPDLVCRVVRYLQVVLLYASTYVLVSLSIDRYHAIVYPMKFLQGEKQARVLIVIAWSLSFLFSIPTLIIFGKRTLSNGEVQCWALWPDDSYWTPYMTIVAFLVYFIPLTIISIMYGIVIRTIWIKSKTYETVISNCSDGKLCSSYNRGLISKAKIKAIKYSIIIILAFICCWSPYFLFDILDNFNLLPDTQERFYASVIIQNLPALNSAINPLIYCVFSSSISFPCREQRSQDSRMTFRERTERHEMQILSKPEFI
Method: A stable cell line overexpressing the human NPSR-107I was created in CHO-Gαq16 cells (RD-HGA16, Molecular Devices), as previously described. Briefly, CHO-Gαq16 cells were transfected with pcDNA 3.1 human NPSR-107I using Lipofectamine reagent. Transfected cells were plated into 10 cm^2 dishes 24 h post-transfection and were selected using Geneticin. After 2 weeks, individual clones were selected, grown to confluence, and screened in a functional 96-well calcium mobilization assay that measured the response to NPS (100 nM final). […] A final working clone was chosen for all subsequent studies based on NPS potency and the calcium mobilization signal window. CHO-Gα16-hNPSR-107I cells were cultured in Ham’s F12 media supplemented with 10% FBS, 100 units/mL penicillin, 100 μg/mL streptomycin, 200 μg/mL hygromycin, and 400 μg/mL geneticin. Media were purchased from HyClone (GE Life Sciences); FBS, penicillin/streptomycin, hygromycin, and geneticin were purchased from Invitrogen (Thermo Scientific). The day before the assay, cells were plated into 96-well black-walled assay plates at 25,000–40,000 cells/well in growth medium without selection antibiotics. Cells were incubated overnight at 37 °C, 5% CO2. The FLIPR Calcium 5 assay kit (Molecular Devices) was used according to the manufacturer’s instructions with minor modifications. Briefly, reconstituted dye was diluted in pre-warmed assay buffer (HBSS, 20 mM HEPES, 2.5 mM probenecid, pH 7.4 at 37 °C). Growth medium was removed, and the cells were gently washed with assay buffer. Calcium 5 dye was added to the cells and the plate was incubated for 45 min at 37 °C, 5% CO2. A single concentration of test compound and 10-point concentration–response curves of NPS (ranging from 100 nM to 1 pM) were prepared at 10× the desired final concentration. Cells were pretreated with the test compound or vehicle in a final concentration of 0.25% BSA/1% DMSO for 15 min at 37 °C. Assay plates were read with a FlexStation II instrument (excitation at 485 nm, detection at 525 nm, Molecular Devices). Calcium-mediated changes in fluorescence were monitored every 1.5 s over a 90 s time period. NPS was added during the read and the maximum kinetic […] (SoftMax [Max-Min], Molecular Devices) in relative fluorescent units (RFU) was measured. Data were fitted to a three-parameter logistic curve to generate EC50 values (GraphPad Prism 6.0). Antagonism was quantified by measuring the ratio of equi-active concentrations of agonist measured in the presence or absence of the antagonist. Apparent Ke values were calculated using the equation Ke = [L]/((EC50^+/EC50^−) − 1), where [L] is the concentration of test compound, EC50^+ is the EC50 of NPS with test compound, and EC50^– is the EC50 of NPS alone. Ke values were considered valid when the EC50^+/EC50^− ratio was at least 4. HBSS and HEPES were purchased from Gibco (Thermo Scientific); probenecid, BSA, and DMSO were purchased from Sigma-Aldrich.

Kb (human NPSR-107I) [nM] | SMILES | other results
432 | CC(C)CC1(c2ccccc2)OC(=O)C2=C1CN(C(=O)NCc1ccccc1)CC2 (centres unmarked) [Compound 14a, N-Benzyl-3-(2-methylpropyl)-1-oxo-3-phenyl-1H,3H,4H,5H,6H,7H-furo[3,4-c]pyridine-5-carboxamide] | –
734 | CC(C)CC1(CC(C)C)OC(=O)C2=C1CN(C(=O)NCc1ccccc1)CC2 [Compound 16, N-Benzyl-3,3-bis(2-methylpropyl)-1-oxo-1H,3H,4H,5H,6H,7H-furo[3,4-c]pyridine-5-carboxamide] | –
500 | CC(C)CC1(c2ccc3ccccc3c2)OC(=O)C2=C1CN(C(=O)NCc1ccccc1)CC2 (centres unmarked) [Compound 22, N-Benzyl-3-(2-methylpropyl)-3-(naphthalen-2-yl)-1-oxo-1H,3H,4H,5H,6H,7H-furo[3,4-c]pyridine-5-carboxamide] | –
1500 | CC(C)CC1(c2ccccc2O)OC(=O)C2=C1CN(C(=O)NCc1ccccc1)CC2 (centres unmarked) [Compound 23, N-Benzyl-3-(2-hydroxyphenyl)-3-(2-methylpropyl)-1-oxo-1H,3H,4H,5H,6H,7H-furo[3,4-c]pyridine-5-carboxamide] | –
572 | CC(C)CC1(c2ccccc2OCc2ccccc2)OC(=O)C2=C1CN(C(=O)NCc1ccccc1)CC2 (centres unmarked) [Compound 24, N-Benzyl-3-[2-(benzyloxy)phenyl]-3-(2-methylpropyl)-1-oxo-1H,3H,4H,5H,6H,7H-furo[3,4-c]pyridine-5-carboxamide] | –
136 | CC(C)CC1(c2cccc(Cl)c2)OC(=O)C2=C1CN(C(=O)NCc1ccccc1)CC2 (centres unmarked) [Compound 25, N-Benzyl-3-(3-chlorophenyl)-3-(2-methylpropyl)-1-oxo-1H,3H,4H,5H,6H,7H-furo[3,4-c]pyridine-5-carboxamide] | –
238 | CCCCNC(=O)N1CCC2=C(C1)C(CC(C)C)(c1ccccc1)OC2=O (centres unmarked) [Compound 26, N-Butyl-3-(2-methylpropyl)-1-oxo-3-phenyl-1H,3H,4H,5H,6H,7H-furo[3,4-c]pyridine-5-carboxamide] | NPSR antagonist activity in words (human NPSR-107I): reduction in potency
566 | CC(C)CC1(c2ccccc2)OC(=O)C2=C1CN(C(=O)NCCN1CCCCC1)CC2 (centres unmarked) [Compound 27, 3-(2-Methylpropyl)-1-oxo-3-phenyl-N-[2-(piperidin-1-yl)Ethyl]-1H,3H,4H,5H,6H,7H-furo[3,4-c]pyridine-5-carboxamide] | NPSR antagonist activity in words (human NPSR-107I): reduction in potency
386 | CC(C)CC1(c2ccccc2)OC(=O)C2=C1CN(C(=S)NCCN1CCCCC1)CC2 (centres unmarked) [Compound 28, 3-(2-Methylpropyl)-1-oxo-3-phenyl-N-[2-(piperidin-1-yl)ethyl]-1H,3H,4H,5H,6H,7H-furo[3,4-c]pyridine-5-carbothioamide] | NPSR antagonist activity in words (human NPSR-107I): reduction in potency

Further lines, the compound ahead of its results:

SMILES | Kb (human NPSR-107I) [nM] | other results
CCC(C)(CCN1CCOCC1)N(Cc1cc2ccccc2n(C)c1=O)C(=O)C1CCCCC1 (centres unmarked) [A] | – | IC50 (NPSR): 23 nM
COc1ccc2c(c1)C(CC1CCOCC1)(c1ccc(Cl)cc1)n1ccnc1-2 (centres unmarked) [B] | – | IC50 (NPSR): 82 nM
O=C(c1ccccc1N1Cn2c(ccc2-c2ccccc2)C1=O)N1CCCCC1 [C] | – | IC50 (NPSR): 10 nM
O=C1OC(c2ccccc2)(c2ccccc2)C2=C1CCN(C(=O)NCc1ccccc1)C2 [Compound 1, N-Benzyl-1-oxo-3,3-diphenyl-1H,3H,4H,5H,6H,7H-furo[3,4-c]pyridine-5-carboxamide] | 522 | Loss of antagonist activity compared to SHA (human NPSR-107I): roughly 50 fold
CCCCNC(=O)N1CCC2=C(C1)C(c1ccccc1)(c1ccccc1)OC2=O [Compound 2, N-Butyl-1-oxo-3,3-diphenyl-1H,3H,4H,5H,6H,7H-furo[3,4-c]pyridine-5-carboxamide] | 515 | Loss of antagonist activity compared to SHA (human NPSR-107I): roughly 50 fold
O=C1OC(c2ccccc2)(c2ccccc2)[C@H]2CN(C(=O)NCc3ccccc3)CC[C@@H]12 [Compound 3, (3,7)-N-Benzyl-1-oxo-3,3-diphenyl-octahydrofuro[3,4-c]pyridine-5-carboxamide] | 761 | NPSR antagonist activity in words (human NPSR-107I): lacked antagonist activity
CCCCNC(=O)N1CC[C@H]2C(=O)OC(c3ccccc3)(c3ccccc3)[C@H]2C1 [Compound 4, (3,7)-N-Butyl-1-oxo-3,3-diphenyl-octahydrofuro[3,4-c]pyridine-5-carboxamide] | – | NPSR antagonist activity in words (human NPSR-107I): lacked antagonist activity
O=C1OC(c2ccccc2)(c2ccccc2)[C@@H]2CN(C(=O)NCc3ccccc3)CC[C@@H]12 [Compound 5, (3,7)-N-Benzyl-1-oxo-3,3-diphenyl-octahydrofuro[3,4-c]pyridine-5-carboxamide] | 170 | –
CCCCNC(=O)N1CC[C@H]2C(=O)OC(c3ccccc3)(c3ccccc3)[C@@H]2C1 [Compound 6, (3,7)-N-Butyl-1-oxo-3,3-diphenyl-octahydrofuro[3,4-c]pyridine-5-carboxamide] | 260 | –
O=C1OC(c2ccccc2)(c2ccccc2)C2=C1CN(C(=O)NCc1ccccc1)CC2 [Compound 7, N-Benzyl-3-oxo-1,1-diphenyl-1H,3H,4H,5H,6H,7H-furo[3,4-c]pyridine-5-carboxamide] | 1130 | NPSR antagonist activity in words (human NPSR-107I): significant loss of potency
O=C1OC2(C3=C1CCN(C(=O)NCc1ccccc1)C3)c1ccccc1CCc1ccccc12 [Compound 9, N-Benzyl-3-oxo-4,5,6,7-tetrahydro-3H-spiro[furo[3,4-c]pyridine-1,2′-tricyclo[9.4.0.0^{3,8}]pentadecane]-1′(11′),3′,5′,7′,12′,14′-hexaene-6-carboxamide] | 1660 | –
CCCCC1(c2ccccc2)OC(=O)C2=C1CN(C(=O)NCc1ccccc1)CC2 (centres unmarked) [Compound 11, N-Benzyl-3-butyl-1-oxo-3-phenyl-1H,3H,4H,5H,6H,7H-furo[3,4-c]pyridine-5-carboxamide] | 165 | –
O=C1OC(Cc2ccccc2)(c2ccccc2)C2=C1CCN(C(=O)NCc1ccccc1)C2 (centres unmarked) [Compound 12, N-3-Dibenzyl-1-oxo-3-phenyl-1H,3H,4H,5H,6H,7H-furo[3,4-c]pyridine-5-carboxamide] | 606 | –
CC(C)(C)CC1(c2ccccc2)OC(=O)C2=C1CN(C(=O)NCc1ccccc1)CC2 (centres unmarked) [Compound 13, N-Benzyl-3-(2,2-dimethylpropyl)-1-oxo-3-phenyl-1H,3H,4H,5H,6H,7H-furo[3,4-c]pyridine-5-carboxamide] | 146 | –
CC(C)CC1(c2ccccc2)OC(=O)C2=C1CN(C(=O)NCc1ccccc1)CC2 (centres unmarked) [Compound 14, N-Benzyl-3-(2-methylpropyl)-1-oxo-3-phenyl-1H,3H,4H,5H,6H,7H-furo[3,4-c]pyridine-5-carboxamide] | 118 | –
CC(C)CC1(c2ccccc2)OC(=O)N2CCN(C(=O)NCc3ccccc3)CC21 (centres unmarked) [Compound 29, N-Benzyl-3-(2-methylpropyl)-1-oxo-3-phenyl-hexahydro-1H-[1,3]oxazolo[3,4-a]piperazine-5-carboxamide] | – | NPSR antagonist activity in words (human NPSR-107I): completely inactive
Cc1c(P(=S)(c2ccccc2)c2ccccc2)n2ccccc2[n+]1C/C=C/c1ccccc1 [D] | – | IC50 (NPSR): 9.6 nM
O=C(NCCN1CCCCC1)N1CCN2C(=O)OC(c3ccccc3)(c3ccccc3)[C@H]2C1 [RTI-118] | – | Ke (NPSR): 36 nM
O=C(NCc1ccccc1)N1CCN2C(=O)OC(c3ccccc3)(c3ccccc3)C2C1 (centres unmarked) [SHA-66] | – | Ke (NPSR): 10 nM
